Molecular target: Polθ polymerase (Homo sapiens (Human), UniProt O75417)
Test: Polθ polymerase activity assay (PicoGreen method)
Type: biochemical
Conditions: His-TEV-SUMO-tagged Polθ protein (amino acids 1792-2590), PicoGreen fluorescence, in vitro
Method: The ability of compounds to inhibit Pol 0 polymerase activity was determined by the PicoGreen method in vitro. The His-TEV-SUMO-tagged Polθ protein (amino acids 1792-2590) expressed in E. coli was purified and stored in aliquots at -80° C. […] Test compounds were diluted in 100% DMSO and diluted three-fold into 10 concentration points in a dilution plate (Greiner-781280) using Bravo (Agilent) according to concentration requirements. The compounds diluted in DMSO were then diluted 20-fold in the assay buffer using Bravo. Further, 2 μl of diluted compounds were transferred to the assay plate (Corning-4512) using Bravo. The purified Pol 0 enzyme and primers ((primer strand: […] ID NO: 1):(template strand: […] A mixture containing 10 mM EDTA, 25 mM Tris pH 7.5, and a 1:200 diluted PicoGreen dye (Invitrogen-[…] the reaction. After 30 min of reaction at room temperature in the dark, fluorescence values were read on EnVision 2105 (PerkinElmer) using the Ex480 nm Em520 nm program, and the raw data was analyzed using XLfit to generate IC50 values. The results are shown in the table below.

Chain of Polθ polymerase (O75417 1792-2590): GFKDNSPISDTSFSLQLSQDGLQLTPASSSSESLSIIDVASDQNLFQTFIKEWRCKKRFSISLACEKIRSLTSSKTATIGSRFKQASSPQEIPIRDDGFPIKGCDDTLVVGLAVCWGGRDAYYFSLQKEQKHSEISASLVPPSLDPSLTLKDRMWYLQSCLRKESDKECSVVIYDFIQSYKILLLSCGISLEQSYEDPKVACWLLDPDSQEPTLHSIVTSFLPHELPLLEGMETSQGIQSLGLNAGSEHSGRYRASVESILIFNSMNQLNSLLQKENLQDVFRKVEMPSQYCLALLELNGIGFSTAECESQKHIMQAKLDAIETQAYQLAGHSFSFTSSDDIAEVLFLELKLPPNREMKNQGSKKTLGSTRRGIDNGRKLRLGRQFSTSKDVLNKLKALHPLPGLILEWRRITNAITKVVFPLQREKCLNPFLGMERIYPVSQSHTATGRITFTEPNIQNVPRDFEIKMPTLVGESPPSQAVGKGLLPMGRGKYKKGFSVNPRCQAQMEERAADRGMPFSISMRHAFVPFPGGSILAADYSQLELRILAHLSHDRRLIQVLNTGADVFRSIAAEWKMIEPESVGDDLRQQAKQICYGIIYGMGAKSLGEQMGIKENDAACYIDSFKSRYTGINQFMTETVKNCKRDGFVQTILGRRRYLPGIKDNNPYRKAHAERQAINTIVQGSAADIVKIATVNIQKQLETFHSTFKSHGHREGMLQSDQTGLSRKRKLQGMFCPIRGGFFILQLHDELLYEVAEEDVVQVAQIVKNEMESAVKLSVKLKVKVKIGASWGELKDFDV

Structure (SMILES)	IC50 [µM]
CN(C(=O)[C@@H]1CNC(=O)N1c1cc(C(F)(F)F)c2c(n1)CC=C2)c1ccc(F)c(Cl)c1F (single isomer, unassigned) [Compound 9a]	≤ 0.05
CN(C(=O)[C@@H]1CNC(=O)N1c1cc(C(F)(F)F)c2c(n1)CC=C2)c1ccc(F)c(Cl)c1F (single isomer, unassigned) [Compound 9b]	≤ 0.05
CN(C(=O)[C@@H]1CNC(=O)N1c1cc(C(F)(F)F)c2c(n1)CCC2)c1ccc(F)c(Cl)c1F [Compound 1, (S)—N-(3-chloro-2,4-difluorophenyl)-N-methyl-2-oxo-3-(4-(trifluoromethyl)-6,7-dihydro-5H-cyclopenta[b]pyridin-2-yl)imidazolidine-4-carboxamide]	≤ 0.05
CN(C(=O)[C@@H]1CNC(=O)N1c1ccc2c(n1)CCC2)c1ccc(F)c(Cl)c1F [Compound 2, (S)—N-(3-chloro-2,4-difluorophenyl)-3-(6,7-dihydro-5H-cyclopenta[b]pyridin-2-yl)-N-methyl-2-oxoimidazolidine-4-carboxamide]	0.5 to 5
CN(C(=O)[C@@H]1CNC(=O)N1c1cc(C(F)(F)F)c2c(n1)CCC2=O)c1ccc(F)c(Cl)c1F [Compound 3, (S)—N-(3-chloro-2,4-difluorophenyl)-N-methyl-2-oxo-3-(5-oxo-4-(trifluoromethyl)-6,7-dihydro-5H-cyclopenta[b]pyridin-2-yl)imidazolidine-4-carboxamide]	> 5
CN(C(=O)[C@@H]1CNC(=O)N1c1cc(C(F)(F)F)c2sccc2n1)c1ccc(F)c(Cl)c1F [Compound 4, (S)—N-(3-chloro-2,4-difluorophenyl)-N-methyl-2-oxo-3-(7-(trifluoromethyl)thieno[3,2-b]pyridin-5-yl)imidazoline-4-carboxamide]	0.05 to 0.5
CN(C(=O)[C@@H]1CNC(=O)N1c1cc(C(F)(F)F)c2c(n1)CCCC2)c1ccc(F)c(Cl)c1F [Compound 5, (S)—N-(3-chloro-2,4-difluorophenyl)-N-methyl-2-oxo-3-(4-(trifluoromethyl)-5,6,7,8-tetrahydroquinolin-2-yl)imidazolidine-4-carboxamide]	0.5 to 5
CN(C(=O)[C@@H]1CNC(=O)N1c1cc(C(F)(F)F)c2c(n1)CC[C@H]2O)c1ccc(F)c(Cl)c1F [Compound 6a]	0.5 to 5
CN(C(=O)[C@@H]1CNC(=O)N1c1cc(C(F)(F)F)c2c(n1)CC[C@]2(C)O)c1ccc(F)c(Cl)c1F [Compound 8a]	0.5 to 5
CN(C(=O)[C@@H]1CNC(=O)N1c1cc(C(F)(F)F)c2c(ncn2C)n1)c1ccc(F)c(Cl)c1F [Compound 10, (S)—N-(3-chloro-2,4-difluorophenyl)-N-methyl-3-(1-methyl-7-(trifluoromethyl)-1H-imidazo[4,5-b]pyridin-5-yl)-2-oxoimidazolidine-4-carboxamide]	> 5
CN(C(=O)[C@@H]1CNC(=O)N1c1cc(C(F)(F)F)c2c(n1)CCC2(F)F)c1ccc(F)c(Cl)c1F [Compound 11, (S)—N-(3-chloro-2,4-difluorophenyl)-3-(5,5-difluoro-4-(trifluoromethyl)-6,7-dihydro-5H-cyclopentadienyl[b]pyridin-2-yl)-N-methyl-2-oxoimidazolidine-4-carboxamide]	0.05 to 0.5
CN(C(=O)[C@@H]1CNC(=O)N1c1cc(C(F)(F)F)c2c(n1)C(F)(F)CC2)c1ccc(F)c(Cl)c1F [Compound 12, (S)—N-(3-chloro-2,4-difluorophenyl)-3-(7,7-difluoro-4-(trifluoromethyl)-6,7-dihydro-5H-cyclopenta[b]pyridin-2-yl)-N-methyl-2-oxoimidazolidine-4-carboxamide]	≤ 0.05
CN(C(=O)[C@@H]1CNC(=O)N1c1cc(C(F)(F)F)c2c(n1)C(=O)CC2)c1ccc(F)c(Cl)c1F [Compound 13, (S)—N-(3-chloro-2,4-difluorophenyl)-N-methyl-2-oxo-3-(7-oxo-4-(trifluoromethyl)-6,7-dihydro-5H-cyclopenta[b]pyridin-2-yl)imidazolidine-4-carboxamide]	≤ 0.05
CN(C(=O)[C@@H]1CNC(=O)N1c1cc(C(F)(F)F)c2ccsc2n1)c1ccc(F)c(Cl)c1F [Compound 14, (S)—N-(3-chloro-2,4-difluorophenyl)-N-methyl-2-oxo-3-(4-(trifluoromethyl)thieno[2,3-b]pyridin-6-yl)imidazolidine-4-carboxamide]	≤ 0.05
CN(C(=O)[C@@H]1CNC(=O)N1c1cc(C(F)(F)F)c2ccoc2n1)c1ccc(F)c(Cl)c1F [Compound 15, (S)—N-(3-chloro-2,4-difluorophenyl)-N-methyl-2-oxo-3-(4-(trifluoromethyl)furo[2,3-b]pyridin-6-yl)imidazolidine-4-carboxamide]	0.05 to 0.5
CN(C(=O)[C@@H]1CNC(=O)N1c1cc(C(F)(F)F)c2ccccc2n1)c1ccc(F)c(Cl)c1F [Compound 17, (S)—N-(3-chloro-2,4-difluorophenyl)-N-methyl-2-oxo-3-(4-(trifluoromethyl)quinolin-2-yl)imidazolidine-4-carboxamide]	0.05 to 0.5
CN(C(=O)[C@@H]1CNC(=O)N1c1cc(C(F)(F)F)c2ccn(C)c2n1)c1ccc(F)c(Cl)c1F [Compound 18, (S)—N-(3-chloro-2,4-difluorophenyl)-N-methyl-3-(1-methyl-4-(trifluoromethyl)-1H-pyrrolo[2,3-b]pyridin-6-yl)-2-oxoimidazolidine-4-carboxamide]	0.05 to 0.5
CN(C(=O)[C@@H]1CNC(=O)N1c1cc(C(F)(F)F)c2c(n1)OCC2)c1ccc(F)c(Cl)c1F [Compound 20, (S)—N-(3-chloro-2,4-difluorophenyl)-N-methyl-2-oxo-3-(4-(trifluoromethyl)-2,3-dihydrofuro[2,3-b]pyridin-6-yl)imidazolidine-4-carboxamide]	0.05 to 0.5

Continued, values first:

IC50 [µM]	Structure (SMILES)
≤ 0.05	CN(C(=O)[C@@H]1CNC(=O)N1c1cc(C(F)(F)F)n2cccc2n1)c1ccc(F)c(Cl)c1F [Compound 22, (S)—N-(3-chloro-2,4-difluorophenyl)-N-methyl-2-oxo-3-(4-(trifluoromethyl)pyrrolo[1,2-a]pyrimidin-2-yl)imidazolidine-4-carboxamide]
≤ 0.05	CN(C(=O)[C@@H]1CNC(=O)N1c1cc(C(F)(F)F)c2cccn2n1)c1ccc(F)c(Cl)c1F [Compound 27, (S)—N-(3-chloro-2,4-difluorophenyl)-N-methyl-2-oxo-3-(4-(trifluoromethyl)pyrrolo[1,2-b]pyridazin-2-yl)imidazolidine-4-carboxamide]
≤ 0.05	O=C1OC[C@@H](c2nc(F)cn2-c2ccc(F)c(Cl)c2)N1c1cc(C(F)(F)F)c2ccsc2n1 [Compound 30, (R)-4-(1-(3-chloro-4-fluorophenyl)-4-fluoro-1H-imidazol-2-yl)-3-(4-(trifluoromethyl)thieno[2,3-b]pyridin-6-yl)oxazolidin-2-one]
≤ 0.05	CN(C(=O)[C@@H]1CNC(=O)N1c1cc(C2CC2)c2ncsc2n1)c1ccc(F)c(Cl)c1F [Compound 31, [(4S)-3-(7-cyclopropyl (1,3-thiazolo[4,5-e]pyridin-5-yl))-2-oxoimidazolidin-4-yl]-N-(3-chloro-2,4-difluorophenyl)-N-methylformamide]
≤ 0.05	CN(C(=O)[C@@H]1CNC(=O)N1c1cc(C(F)(F)F)c2cc[se]c2n1)c1ccc(F)c(Cl)c1F [Compound 33]
> 5	CN(C(=O)[C@@H]1CNC(=O)N1c1nccn2ccnc12)c1ccc(F)c(Cl)c1F [Compound 41, (S)—N-(3-chloro-2,4-difluorophenyl)-3-(imidazo[1,2-a]pyrazin-8-yl)-N-methyl-2-oxoimidazolidine-4-carboxamide]
0.05 to 0.5	CSc1cc(N2C(=O)NC[C@H]2C(=O)N(C)c2ccc(F)c(Cl)c2F)nc2scnc12 [Compound 43, (S)—N-(3-chloro-2,4-difluorophenyl)-N-methyl-3-(7-(methylthio)thiazolo[5,4-b]pyridin-5-yl)-2-oxoimidazolidine-4-carboxamide]
0.05 to 0.5	CN(C(=O)[C@@H]1CNC(=O)N1c1cc(SC(F)(F)F)c2ncsc2n1)c1ccc(F)c(Cl)c1F [Compound 44, (S)—N-(3-chloro-2,4-difluorophenyl)-N-methyl-2-oxo-3-(7-((trifluoromethyl)thio)thiazolo[5,4-b]pyridin-5-yl)imidazolidine-4-carboxamide]
